36 compounds from patent publication US20230374007A1, “COMPOUNDS AND THEIR USE IN TREATING CANCER” (AstraZeneca AB, priority 2020, published 2023) can be followed below.

The assay concerns the target T1, cereblon (CRBN)—DNA damage protein 1 (DDB1) complex (Homo sapiens, UniProt Q96SW2).
T1 construct: encoding amino acid residues 1 to 442 (Uniprot Q96SW2); hexahistidine (N); thrombin cleavage site (N); made in house; host or cells: Sf9 insect cells (baculovirus co-infection)
Description: Cereblon HTRF binding assay. An excerpt: The synthesized sequence was designed to encode an N-terminal hexahistidine tag, a thrombin cleavage site, an AviTag™ and a tobacco etch virus protease (TEV) cleavage site followed by the CBRN sequence. The resulting protein sequence is listed below.
The synthesized sequence was designed to encode an N-terminal hexahistidine tag, a tobacco etch virus protease (TEV) cleavage site followed by the DDB1 sequence. […] The linker amino acid residues are underlined and shown in italics.
Baculovirus production of CBRN and DDB1: Recombinant bacmid and P2 virus of CBRN and DDB1 was generated according to the Bac-to-Bac Baculovirus Expression System manual (ThermoFisher Scientific).
Protein Purification: Protein purification was initiated by thawing cells (resuspended in Lysis buffer) at r.t. Once thawed, NaCl was added to a final concentration of 200 mM, followed by 0.01 μL/mL Benzonase™ and the lysate was incubated with slow stirring for 20 minutes. After the freeze-thaw lysis, the whole cell lysate was centrifuged at 48 000 g for 45 minutes and all following purification steps were done on ice or in cold-room. Supernatant (cell lysate) was mixed with 1 mL/50 mL lysate Ni Sepharose™ 6 Fast Flow (Cytiva) pre-equilibrated with Wash buffer (50 mM Tris-Cl pH 8, 20 mM Imidazole, 500 mM NaCl, 10% Glycerol, 1 mM TCEP) and incubated with slow stirring for 1 h. The mix was loaded in a 70 mL open gravity flow column, washed with 10 bed volumes of Wash buffer, and stepwise eluted with 300 mM imidazole in Wash buffer. […] After biotinylation, the CBRN/DDB1 complex was purified by Size Exclusion Chromatography on a HiLoad™ 26/60 Superdex™ 200 column equilibrated in SEC buffer (50 mM HEPES pH 7.5, 200 mM NaCl, 5% glycerol, 1 mM TCEP) before flash-freezing in liquid nitrogen and storage at −80° C.
The assay mixture in a total volume of 4 μL consists of 50 mM Tris-HCl at pH 7.5, 100 mM NaCl, 0.01% Pluronic F127, 1 mM TCEP, 500 μM EDTA, 0.2 nM CRBN-DDB1, 0.2 nM terbium cryptate labeled streptavidin, and 2 nM Cyanine 5-labeled lenalidomide as the probe. […] Reagents were dispensed into the 384-well assay microplate using a Certus Flex liquid dispenser. After incubation for 2 h at r.t., the assay plates were read on a PHERAstar FSX plate reader (BMG Labtech) in the HTRF mode. The raw data from PHERAstar was directly imported into Genedata Screener for analysis. […] The ratio was normalized to positive and negative controls on the same plates to calculate percent inhibition: I %=(I−NC)/(PC−NC), where I are readings from the compound treated well, NC and PC are average readings from negative control wells and positive control wells, respectively. IC50 values were obtained by fitting the I % vs. compound concentration [I] to I %=S0+(SInf−S0)/(1+((IC50/[I])^n)), where S0 is the fitted activity level at zero concentration of test compound, SInf is the fitted activity level at […] concentration of test compound, and n is the hill coefficient of the curve.
The IC50 values reported below are the calculated mean result of one or more experiments.

T1 sequence (Q96SW2 with tags, fused parts or gaps): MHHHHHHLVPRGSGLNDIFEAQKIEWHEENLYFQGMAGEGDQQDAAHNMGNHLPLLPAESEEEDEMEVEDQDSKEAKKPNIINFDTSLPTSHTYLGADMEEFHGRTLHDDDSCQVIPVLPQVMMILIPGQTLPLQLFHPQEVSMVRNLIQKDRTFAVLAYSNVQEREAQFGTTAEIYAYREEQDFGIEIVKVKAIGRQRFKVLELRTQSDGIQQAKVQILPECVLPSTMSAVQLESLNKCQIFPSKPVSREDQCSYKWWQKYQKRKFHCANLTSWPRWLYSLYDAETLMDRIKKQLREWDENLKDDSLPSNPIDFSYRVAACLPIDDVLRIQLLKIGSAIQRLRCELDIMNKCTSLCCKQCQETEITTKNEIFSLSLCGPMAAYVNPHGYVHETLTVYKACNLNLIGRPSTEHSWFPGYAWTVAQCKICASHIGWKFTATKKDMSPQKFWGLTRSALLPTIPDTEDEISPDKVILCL

For orientation: IC50 means the concentration at which inhibition is half-maximal. Regarding `Cn1cc(N2CCNCC2)c2ccc(N3CCC(=O)NC3=O)cc21` [Example 74, 1-(1-Methyl-3-(piperazin-1-yl)-1H-indol-6-yl)dihydropyrimidine-2,4 (1H,3H)-dione], the IC50 came to 3810 nM. To `O=C1CCN(c2ccc3sccc3c2)C(=O)N1` [Example 130, 1-(Benzo[b]thiophen-5-yl)dihydropyrimidine-2,4 (1H,3H)-dione] belongs 706 nM; to `COc1cc(N2CCC(=O)NC2=O)cc2[nH]ccc12` [Example 52, 1-(4-Methoxy-1H-indol-6-yl)dihydropyrimidine-2,4 (1H,3H)-dione], 445 nM; to `O=C1CCN(c2cnc3ccoc3c2)C(=O)N1` [Example 37, 1-(Furo[3,2-b]pyridin-6-yl)dihydropyrimidine-2,4 (1H,3H)-dione], 3100 nM. To `O=C1CCN(c2ccc3ccoc3c2)C(=O)N1` [Example 1, 1-(Benzofuran-6-yl)dihydropyrimidine-2,4 (1H,3H)-dione] belongs 2100 nM; to `Cc1c(N2CCC(=O)NC2=O)ccc2cc[nH]c12` [Example 57, 1-(7-Methyl-1H-indol-6-yl)dihydropyrimidine-2,4 (1H,3H)-dione], 96 nM; to `O=C1CCN(c2ccc3[nH]ncc3c2)C(=O)N1` [Example 35, 1-(1H-Indazol-5-yl)dihydropyrimidine-2,4 (1H,3H)-dione], 2970 nM. To `CN1CCn2c(cc3ccc(N4CCC(=O)NC4=O)cc32)C1` [Example 103, 1-(2-Methyl-1,2,3,4-tetrahydropyrazino[1,2-a]indol-7-yl)dihydropyrimidine-2,4 (1H,3H)-dione] belongs 682 nM; to `CC(=O)N1CCC(c2c[nH]c3cc(N4CCC(=O)NC4=O)ccc23)CC1` [Example 118, 1-(3-(1-Acetylpiperidin-4-yl)-1H-indol-6-yl)dihydropyrimidine-2,4 (1H,3H)-dione], 389 nM. Compound `O=C1CCN(c2ccc3c(cnn3C3CCNCC3)c2)C(=O)N1` [Example 106, 1-(1-(Piperidin-4-yl)-1H-indazol-5-yl)dihydropyrimidine-2,4 (1H,3H)-dione] registered an IC50 of 4040 nM. Compared with the last compound, the IC50 is about 10-fold higher.

As to `O=C1CCN(c2ccc3[nH]cc(N4CCNCC4)c3c2)C(=O)N1` [Example 77, 1-(3-(Piperazin-1-yl)-1H-indol-5-yl)dihydropyrimidine-2,4 (1H,3H)-dione], the IC50 came to 562 nM. Compared with the last compound, the IC50 is about 7.2-fold lower. To `O=C1CCN(c2cc(N3CCNCC3)cc3[nH]ccc23)C(=O)N1` [Example 91, 1-(6-(Piperazin-1-yl)-1H-indol-4-yl)dihydropyrimidine-2,4 (1H,3H)-dione] belongs 762 nM; to `O=C1CCN(c2c(Cl)ccc3[nH]ccc23)C(=O)N1` [Example 64, 1-(5-Chloro-1H-indol-4-yl)dihydropyrimidine-2,4 (1H,3H)-dione], 78 nM; to `CN1CCn2c(cc3cc(N4CCC(=O)NC4=O)ccc32)C1` [Example 105, 1-(2-Methyl-1,2,3,4-tetrahydropyrazino[1,2-a]indol-8-yl)dihydropyrimidine-2,4 (1H,3H)-dione], 460 nM. To `COc1c(N2CCC(=O)NC2=O)ccc2cc[nH]c12` [Example 62, 1-(7-Methoxy-1H-indol-6-yl)dihydropyrimidine-2,4 (1H,3H)-dione] belongs 2140 nM; to `CNC(=O)Cc1cc2ccc(N3CCC(=O)NC3=O)cc2[nH]1` [Example 67, 2-(6-(2,4-Dioxotetrahydropyrimidin-1 (2H)-yl)-1H-indol-2-yl)-N-methylacetamide], 974 nM.

Consider `Cn1ncc2cc(N3CCC(=O)NC3=O)ccc21` [Example 6, 1-(1-Methyl-1H-indazol-5-yl)dihydropyrimidine-2,4 (1H,3H)-dione], for which the IC50 worked out at 3930 nM. Regarding `O=c1[nH]c(=O)n(-c2ccc3cc[nH]c3c2)cc1F` [Example 14, 5-Fluoro-1-(1H-indol-6-yl)pyrimidine-2,4 (1H,3H)-dione], the IC50 came out at 516 nM.

For the compound `Cn1cc2cc(N3CCC(=O)NC3=O)ccc2n1` [Example 8, 1-(2-Methyl-2H-indazol-5-yl)dihydropyrimidine-2,4 (1H,3H)-dione], the half-inhibitory concentration (IC50) came to 4570 nM. To `CN1CCC(n2cc3ccc(N4CCC(=O)NC4=O)cc3n2)CC1` [Example 110, 1-(2-(1-Methylpiperidin-4-yl)-2H-indazol-6-yl)dihydropyrimidine-2,4 (1H,3H)-dione] belongs 655 nM; to `Cn1c(C2CCNCC2)cc2c(N3CCC(=O)NC3=O)cccc21` [Example 88, 1-(1-Methyl-2-(piperidin-4-yl)-1H-indol-4-yl)dihydropyrimidine-2,4 (1H,3H)-dione], 679 nM; to `CC(=O)N1CCC(n2ccc3cc(N4CCC(=O)NC4=O)ccc32)CC1` [Example 115, 1-(1-(1-Acetylpiperidin-4-yl)-1H-indol-5-yl)dihydropyrimidine-2,4 (1H,3H)-dione], 933 nM. Compound `O=C1CCN(c2ccc3c(c2)C(=O)NC3)C(=O)N1` [Example 44, 1-(3-Oxoisoindolin-5-yl)dihydropyrimidine-2,4 (1H,3H)-dione] registered a 50% inhibitory concentration (IC50) of 8470 nM.

Take `O=C1CCN(c2ccc3[nH]c(=O)oc3c2)C(=O)N1` [Example 46, 1-(2-Oxo-2,3-dihydrobenzo[d]oxazol-6-yl)dihydropyrimidine-2,4 (1H,3H)-dione]: the IC50 turned out to be 3750 nM. As for `CC(=O)N1CCN(c2noc3cc(N4CCC(=O)NC4=O)ccc23)CC1` [Example 95, 1-(3-(4-Acetylpiperazin-1-yl)benzo[d]isoxazol-6-yl)dihydropyrimidine-2,4 (1H,3H)-dione], the IC50 turned out to be 6580 nM.

`O=C1CCN(c2ccc3nc(N4CCNCC4)oc3c2)C(=O)N1` [Example 98, 1-(2-(Piperazin-1-yl)benzo[d]oxazol-6-yl)dihydropyrimidine-2,4 (1H,3H)-dione] returned a 50% inhibitory concentration (IC50) of 3120 nM. In turn, `O=C1CCN(c2ccc3c(c2)CCCN3)C(=O)N1` [Example 26, 1-(1,2,3,4-Tetrahydroquinolin-6-yl)dihydropyrimidine-2,4 (1H,3H)-dione] displayed an IC50 of 1490 nM.

For the compound `CC(=O)N1CCN(c2c[nH]c3ccc(N4CCC(=O)NC4=O)cc23)CC1` [Example 79, 1-(3-(4-Acetylpiperazin-1-yl)-1H-indol-5-yl)dihydropyrimidine-2,4 (1H,3H)-dione], the IC50 was 1980 nM.

In the case of `CN1CCC(n2ncc3cc(N4CCC(=O)NC4=O)ccc32)CC1` [Example 108, 1-(1-(1-Methylpiperidin-4-yl)-1H-indazol-5-yl)dihydropyrimidine-2,4 (1H,3H)-dione], the IC50 is 3810 nM. `O=C1CCN(c2ccc3ccnn3c2)C(=O)N1` [Example 3, 1-(Pyrazolo[1,5-a]pyridin-6-yl)dihydropyrimidine-2,4 (1H,3H)-dione] registered an IC50 of 3280 nM. `O=C1CCN(c2c(F)ccc3[nH]ccc23)C(=O)N1` [Example 63, 1-(5-Fluoro-1H-indol-4-yl)dihydropyrimidine-2,4 (1H,3H)-dione]: the 50% inhibitory concentration (IC50) is 235 nM.

In turn, `CN1CCC(c2c[nH]c3cc(N4CCC(=O)NC4=O)ccc23)CC1` [Example 117, 1-(3-(1-Methylpiperidin-4-yl)-1H-indol-6-yl)dihydropyrimidine-2,4 (1H,3H)-dione] yielded an IC50 of 2160 nM. This IC50 is about 9.2-fold higher than that of the compound before. `COCc1cc(N2CCC(=O)NC2=O)c2ccn(C)c2c1` [Example 19, 1-(6-(Methoxymethyl)-1-methyl-1H-indol-4-yl)dihydropyrimidine-2,4 (1H,3H)-dione] came in with a 50% inhibitory concentration (IC50) of 430 nM. To `O=C1CCN(c2ccc3[nH]ccc3c2)C(=O)N1` [Example 56, 1-(1H-Indol-5-yl)dihydropyrimidine-2,4 (1H,3H)-dione] belongs 341 nM; to `O=C1CCN(c2ccc3nn(C4CCNCC4)cc3c2)C(=O)N1` [Example 107, 1-(2-(Piperidin-4-yl)-2H-indazol-5-yl)dihydropyrimidine-2,4 (1H,3H)-dione], 3780 nM; to `CN1CCN(c2cn(C)c3ccc(N4CCC(=O)NC4=O)cc23)CC1` [Example 80, 1-(1-Methyl-3-(4-methylpiperazin-1-yl)-1H-indol-5-yl)dihydropyrimidine-2,4 (1H,3H)-dione], 3150 nM.
